Source: PubChem BioAssay (NCI)
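48-hour exposure; five concentrations; linearly interpolated endpoints. GI50 marks 50% less growth. TGI marks complete inhibition of growth.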

What was measured:
Experiment in all cases: NCI anticancer screen, dose series, 48 h
786-0 renal = test system: 786-0 renal
A498 renal = test system: A498 renal
A549 NSCLC = test system: A549 NSCLC
ACHN renal = test system: ACHN renal
BT-549 breast = test system: BT-549 breast
CAKI-1 renal = test system: CAKI-1 renal
CCRF-CEM leukemia = test system: CCRF-CEM leukemia
COLO 205 colon = test system: COLO 205 colon
DU-145 prostate = test system: DU-145 prostate
EKVX NSCLC = test system: EKVX NSCLC
HCC-2998 colon = test system: HCC-2998 colon
HCT-116 colon = test system: HCT-116 colon
HCT-15 colon = test system: HCT-15 colon
HL-60(TB) leukemia = test system: HL-60(TB) leukemia
HOP-62 NSCLC = test system: HOP-62 NSCLC
HOP-92 NSCLC = test system: HOP-92 NSCLC
HS 578T breast = test system: HS 578T breast
HT29 colon = test system: HT29 colon
IGROV1 ovarian = test system: IGROV1 ovarian
K-562 leukemia = test system: K-562 leukemia
KM12 colon = test system: KM12 colon
LOX IMVI melanoma = test system: LOX IMVI melanoma
M14 melanoma = test system: M14 melanoma
MALME-3M melanoma = test system: MALME-3M melanoma
MCF7 breast = test system: MCF7 breast
MDA-MB-231 breast = test system: MDA-MB-231 breast
MDA-MB-435 = test system: MDA-MB-435
MOLT-4 leukemia = test system: MOLT-4 leukemia
NCI-H226 lung = test system: NCI-H226 lung
NCI-H23 lung = test system: NCI-H23 lung
NCI-H460 lung = test system: NCI-H460 lung
NCI-H522 lung = test system: NCI-H522 lung
NCI/ADR-RES ovarian = test system: NCI/ADR-RES ovarian
OVCAR-3 ovarian = test system: OVCAR-3 ovarian
OVCAR-4 ovarian = test system: OVCAR-4 ovarian
OVCAR-5 ovarian = test system: OVCAR-5 ovarian
OVCAR-8 ovarian = test system: OVCAR-8 ovarian
PC-3 prostate = test system: PC-3 prostate
RPMI-8226 leukemia = test system: RPMI-8226 leukemia
RXF 393 renal = test system: RXF 393 renal
SF-268 CNS = test system: SF-268 CNS
SF-295 CNS = test system: SF-295 CNS
SF-539 CNS = test system: SF-539 CNS
SK-MEL-2 melanoma = test system: SK-MEL-2 melanoma
SK-MEL-28 melanoma = test system: SK-MEL-28 melanoma
SK-MEL-5 melanoma = test system: SK-MEL-5 melanoma
SK-OV-3 ovarian = test system: SK-OV-3 ovarian
SN12C renal = test system: SN12C renal
SNB-19 CNS = test system: SNB-19 CNS
SNB-75 CNS = test system: SNB-75 CNS
SR leukemia = test system: SR leukemia
SW-620 colon = test system: SW-620 colon
T-47D breast = test system: T-47D breast
TK-10 renal = test system: TK-10 renal
U251 CNS = test system: U251 CNS
UACC-257 melanoma = test system: UACC-257 melanoma
UACC-62 melanoma = test system: UACC-62 melanoma
UO-31 renal = test system: UO-31 renal

Compound: Fc1ccc(-c2nnc3sc(-c4cc(Cl)cc(Cl)c4)nn23)cc1Cl
- GI50 (786-0 renal): 29.7 µM
- TGI (786-0 renal): > 100 µM
- GI50 (A498 renal): 29 µM
- TGI (A498 renal): 77.9 µM
- GI50 (A549 NSCLC): 24.4 µM
- TGI (A549 NSCLC): 61.8 µM
- GI50 (ACHN renal): 21 µM
- TGI (ACHN renal): 45.6 µM
- GI50 (BT-549 breast): 87.1 µM
- TGI (BT-549 breast): > 100 µM
- GI50 (CAKI-1 renal): 33.5 µM
- TGI (CAKI-1 renal): 96.4 µM
- GI50 (CCRF-CEM leukemia): 29 µM
- TGI (CCRF-CEM leukemia): 86.8 µM
- GI50 (COLO 205 colon): 56.6 µM
- TGI (COLO 205 colon): > 100 µM
- GI50 (DU-145 prostate): > 100 µM
- TGI (DU-145 prostate): > 100 µM
- GI50 (EKVX NSCLC): > 100 µM
- TGI (EKVX NSCLC): > 100 µM
- GI50 (HCC-2998 colon): > 100 µM
- TGI (HCC-2998 colon): > 100 µM
- GI50 (HCT-116 colon): 18.5 µM
- TGI (HCT-116 colon): 44.2 µM
- GI50 (HCT-15 colon): 72.5 µM
- TGI (HCT-15 colon): > 100 µM
- GI50 (HL-60(TB) leukemia): 99.1 µM
- TGI (HL-60(TB) leukemia): > 100 µM
- GI50 (HOP-62 NSCLC): 20.3 µM
- TGI (HOP-62 NSCLC): 42 µM
- GI50 (HOP-92 NSCLC): 20.5 µM
- TGI (HOP-92 NSCLC): 52.4 µM
- GI50 (HS 578T breast): 45.2 µM
- TGI (HS 578T breast): > 100 µM
- GI50 (HT29 colon): 28.1 µM
- TGI (HT29 colon): 83.3 µM
- GI50 (IGROV1 ovarian): > 100 µM
- TGI (IGROV1 ovarian): > 100 µM
- GI50 (K-562 leukemia): > 100 µM
- TGI (K-562 leukemia): > 100 µM
- GI50 (KM12 colon): > 100 µM
- TGI (KM12 colon): > 100 µM
- GI50 (LOX IMVI melanoma): 32.8 µM
- TGI (LOX IMVI melanoma): > 100 µM
- GI50 (M14 melanoma): 41.3 µM
- TGI (M14 melanoma): > 100 µM
- GI50 (MALME-3M melanoma): 37.7 µM
- TGI (MALME-3M melanoma): > 100 µM
- GI50 (MCF7 breast): 30.5 µM
- TGI (MCF7 breast): > 100 µM
- GI50 (MDA-MB-231 breast): 17.2 µM
- TGI (MDA-MB-231 breast): 39.4 µM
- GI50 (MDA-MB-435): > 100 µM
- TGI (MDA-MB-435): > 100 µM
- GI50 (MOLT-4 leukemia): 72.9 µM
- TGI (MOLT-4 leukemia): > 100 µM
- GI50 (NCI-H226 lung): 34.3 µM
- TGI (NCI-H226 lung): > 100 µM
- GI50 (NCI-H23 lung): 37.2 µM
- TGI (NCI-H23 lung): > 100 µM
- GI50 (NCI-H460 lung): 39.3 µM
- TGI (NCI-H460 lung): > 100 µM
- GI50 (NCI-H522 lung): 49.7 µM
- TGI (NCI-H522 lung): > 100 µM
- GI50 (NCI/ADR-RES ovarian): 34.9 µM
- TGI (NCI/ADR-RES ovarian): > 100 µM
- GI50 (OVCAR-3 ovarian): > 100 µM
- TGI (OVCAR-3 ovarian): > 100 µM
- GI50 (OVCAR-4 ovarian): 17.4 µM
- TGI (OVCAR-4 ovarian): 53.4 µM
- GI50 (OVCAR-5 ovarian): 70.1 µM
- TGI (OVCAR-5 ovarian): > 100 µM
- GI50 (OVCAR-8 ovarian): 46.6 µM
- TGI (OVCAR-8 ovarian): > 100 µM
- GI50 (PC-3 prostate): 61.3 µM
- TGI (PC-3 prostate): > 100 µM
- GI50 (RPMI-8226 leukemia): 46.8 µM
- TGI (RPMI-8226 leukemia): > 100 µM
- GI50 (RXF 393 renal): 1.51 µM
- TGI (RXF 393 renal): 26.4 µM
- GI50 (SF-268 CNS): 53 µM
- TGI (SF-268 CNS): > 100 µM
- GI50 (SF-295 CNS): 74.2 µM
- TGI (SF-295 CNS): > 100 µM
- GI50 (SF-539 CNS): > 100 µM
- TGI (SF-539 CNS): > 100 µM
- GI50 (SK-MEL-2 melanoma): > 100 µM
- TGI (SK-MEL-2 melanoma): > 100 µM
- GI50 (SK-MEL-28 melanoma): > 100 µM
- TGI (SK-MEL-28 melanoma): > 100 µM
- GI50 (SK-MEL-5 melanoma): > 100 µM
- TGI (SK-MEL-5 melanoma): > 100 µM
- GI50 (SK-OV-3 ovarian): 24.6 µM
- TGI (SK-OV-3 ovarian): 46.3 µM
- GI50 (SN12C renal): 34.2 µM
- TGI (SN12C renal): > 100 µM
- GI50 (SNB-19 CNS): 32.3 µM
- TGI (SNB-19 CNS): > 100 µM
- GI50 (SNB-75 CNS): 13 µM
- TGI (SNB-75 CNS): 30.1 µM
- GI50 (SR leukemia): 13.3 µM
- TGI (SR leukemia): 43.8 µM
- GI50 (SW-620 colon): 45 µM
- TGI (SW-620 colon): > 100 µM
- GI50 (T-47D breast): > 100 µM
- TGI (T-47D breast): > 100 µM
- GI50 (TK-10 renal): 20.5 µM
- TGI (TK-10 renal): 44 µM
- GI50 (U251 CNS): 17.3 µM
- TGI (U251 CNS): 43.6 µM
- GI50 (UACC-257 melanoma): 38.2 µM
- TGI (UACC-257 melanoma): > 100 µM
- GI50 (UACC-62 melanoma): 31.1 µM
- TGI (UACC-62 melanoma): > 100 µM
- GI50 (UO-31 renal): 39.6 µM
- TGI (UO-31 renal): > 100 µM
